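Following 48 hours of exposure in 96-well plates, responses at five concentrations were used to interpolate endpoints linearly. At the GI50, growth is halved. TGI marks complete inhibition of growth.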
How the values were obtained:
Assay in all cases: growth of human tumour cells (NCI), 48 h
NCI-H226 lung = test system: NCI-H226 lung
BT-549 breast = test system: BT-549 breast
SNB-75 CNS = test system: SNB-75 CNS
TK-10 renal = test system: TK-10 renal
UACC-62 melanoma = test system: UACC-62 melanoma
NCI-H522 lung = test system: NCI-H522 lung
PC-3 prostate = test system: PC-3 prostate
LOX IMVI melanoma = test system: LOX IMVI melanoma
A498 renal = test system: A498 renal
SF-539 CNS = test system: SF-539 CNS
MCF7 breast = test system: MCF7 breast
IGROV1 ovarian = test system: IGROV1 ovarian
KM12 colon = test system: KM12 colon
HCT-15 colon = test system: HCT-15 colon
MALME-3M melanoma = test system: MALME-3M melanoma
HOP-92 NSCLC = test system: HOP-92 NSCLC
CCRF-CEM leukemia = test system: CCRF-CEM leukemia
A549 NSCLC = test system: A549 NSCLC
MDA-MB-435 = test system: MDA-MB-435
UACC-257 melanoma = test system: UACC-257 melanoma
HCC-2998 colon = test system: HCC-2998 colon
SW-620 colon = test system: SW-620 colon
786-0 renal = test system: 786-0 renal
OVCAR-5 ovarian = test system: OVCAR-5 ovarian
M14 melanoma = test system: M14 melanoma
NCI-H23 lung = test system: NCI-H23 lung
MOLT-4 leukemia = test system: MOLT-4 leukemia
CAKI-1 renal = test system: CAKI-1 renal
OVCAR-4 ovarian = test system: OVCAR-4 ovarian
HL-60(TB) leukemia = test system: HL-60(TB) leukemia
COLO 205 colon = test system: COLO 205 colon
NCI-H460 lung = test system: NCI-H460 lung
SF-295 CNS = test system: SF-295 CNS
SF-268 CNS = test system: SF-268 CNS
K-562 leukemia = test system: K-562 leukemia
SN12C renal = test system: SN12C renal
U251 CNS = test system: U251 CNS
SK-MEL-28 melanoma = test system: SK-MEL-28 melanoma
DU-145 prostate = test system: DU-145 prostate
HOP-62 NSCLC = test system: HOP-62 NSCLC
SK-OV-3 ovarian = test system: SK-OV-3 ovarian
EKVX NSCLC = test system: EKVX NSCLC
OVCAR-8 ovarian = test system: OVCAR-8 ovarian
MDA-MB-231 breast = test system: MDA-MB-231 breast
HCT-116 colon = test system: HCT-116 colon
UO-31 renal = test system: UO-31 renal
SK-MEL-2 melanoma = test system: SK-MEL-2 melanoma
RXF 393 renal = test system: RXF 393 renal
OVCAR-3 ovarian = test system: OVCAR-3 ovarian
RPMI-8226 leukemia = test system: RPMI-8226 leukemia
SR leukemia = test system: SR leukemia
SK-MEL-5 melanoma = test system: SK-MEL-5 melanoma
T-47D breast = test system: T-47D breast
HT29 colon = test system: HT29 colon
ACHN renal = test system: ACHN renal
NCI/ADR-RES ovarian = test system: NCI/ADR-RES ovarian
SNB-19 CNS = test system: SNB-19 CNS
HS 578T breast = test system: HS 578T breast

SMILES: Cc1ccc(-c2cc3c(NC(=O)C4CC4)ncnc3o2)cc1
- GI50 (NCI-H226 lung): > 25 µM
- TGI (NCI-H226 lung): > 25 µM
- GI50 (BT-549 breast): > 25 µM
- TGI (BT-549 breast): > 25 µM
- GI50 (SNB-75 CNS): 24.2 µM
- TGI (SNB-75 CNS): > 25 µM
- GI50 (TK-10 renal): > 25 µM
- TGI (TK-10 renal): > 25 µM
- GI50 (UACC-62 melanoma): > 25 µM
- TGI (UACC-62 melanoma): > 25 µM
- GI50 (NCI-H522 lung): > 25 µM
- TGI (NCI-H522 lung): > 25 µM
- GI50 (PC-3 prostate): > 25 µM
- TGI (PC-3 prostate): > 25 µM
- GI50 (LOX IMVI melanoma): > 25 µM
- TGI (LOX IMVI melanoma): > 25 µM
- GI50 (A498 renal): > 25 µM
- TGI (A498 renal): > 25 µM
- GI50 (SF-539 CNS): > 25 µM
- TGI (SF-539 CNS): > 25 µM
- GI50 (MCF7 breast): > 25 µM
- TGI (MCF7 breast): > 25 µM
- GI50 (IGROV1 ovarian): > 25 µM
- TGI (IGROV1 ovarian): > 25 µM
- GI50 (KM12 colon): > 25 µM
- TGI (KM12 colon): > 25 µM
- GI50 (HCT-15 colon): > 25 µM
- TGI (HCT-15 colon): > 25 µM
- GI50 (MALME-3M melanoma): > 25 µM
- TGI (MALME-3M melanoma): > 25 µM
- GI50 (HOP-92 NSCLC): > 25 µM
- TGI (HOP-92 NSCLC): > 25 µM
- GI50 (CCRF-CEM leukemia): > 25 µM
- TGI (CCRF-CEM leukemia): > 25 µM
- GI50 (A549 NSCLC): > 25 µM
- TGI (A549 NSCLC): > 25 µM
- GI50 (MDA-MB-435): > 25 µM
- TGI (MDA-MB-435): > 25 µM
- GI50 (UACC-257 melanoma): > 25 µM
- TGI (UACC-257 melanoma): > 25 µM
- GI50 (HCC-2998 colon): > 25 µM
- TGI (HCC-2998 colon): > 25 µM
- GI50 (SW-620 colon): > 25 µM
- TGI (SW-620 colon): > 25 µM
- GI50 (786-0 renal): > 25 µM
- TGI (786-0 renal): > 25 µM
- GI50 (OVCAR-5 ovarian): > 25 µM
- TGI (OVCAR-5 ovarian): > 25 µM
- GI50 (M14 melanoma): > 25 µM
- TGI (M14 melanoma): > 25 µM
- GI50 (NCI-H23 lung): > 25 µM
- TGI (NCI-H23 lung): > 25 µM
- GI50 (MOLT-4 leukemia): > 25 µM
- TGI (MOLT-4 leukemia): > 25 µM
- GI50 (CAKI-1 renal): > 25 µM
- TGI (CAKI-1 renal): > 25 µM
- GI50 (OVCAR-4 ovarian): > 25 µM
- TGI (OVCAR-4 ovarian): > 25 µM
- GI50 (HL-60(TB) leukemia): > 25 µM
- TGI (HL-60(TB) leukemia): > 25 µM
- GI50 (COLO 205 colon): > 25 µM
- TGI (COLO 205 colon): > 25 µM
- GI50 (NCI-H460 lung): > 25 µM
- TGI (NCI-H460 lung): > 25 µM
- GI50 (SF-295 CNS): > 25 µM
- TGI (SF-295 CNS): > 25 µM
- GI50 (SF-268 CNS): > 25 µM
- TGI (SF-268 CNS): > 25 µM
- GI50 (K-562 leukemia): > 25 µM
- TGI (K-562 leukemia): > 25 µM
- GI50 (SN12C renal): > 25 µM
- TGI (SN12C renal): > 25 µM
- GI50 (U251 CNS): > 25 µM
- TGI (U251 CNS): > 25 µM
- GI50 (SK-MEL-28 melanoma): > 25 µM
- TGI (SK-MEL-28 melanoma): > 25 µM
- GI50 (DU-145 prostate): > 25 µM
- TGI (DU-145 prostate): > 25 µM
- GI50 (HOP-62 NSCLC): > 25 µM
- TGI (HOP-62 NSCLC): > 25 µM
- GI50 (SK-OV-3 ovarian): > 25 µM
- TGI (SK-OV-3 ovarian): > 25 µM
- GI50 (EKVX NSCLC): > 21.3 µM
- TGI (EKVX NSCLC): > 25 µM
- GI50 (OVCAR-8 ovarian): > 25 µM
- TGI (OVCAR-8 ovarian): > 25 µM
- GI50 (MDA-MB-231 breast): > 25 µM
- TGI (MDA-MB-231 breast): > 25 µM
- GI50 (HCT-116 colon): > 25 µM
- TGI (HCT-116 colon): > 25 µM
- GI50 (UO-31 renal): > 25 µM
- TGI (UO-31 renal): > 25 µM
- GI50 (SK-MEL-2 melanoma): > 25 µM
- TGI (SK-MEL-2 melanoma): > 25 µM
- GI50 (RXF 393 renal): > 25 µM
- TGI (RXF 393 renal): > 25 µM
- GI50 (OVCAR-3 ovarian): > 25 µM
- TGI (OVCAR-3 ovarian): > 25 µM
- GI50 (RPMI-8226 leukemia): > 25 µM
- TGI (RPMI-8226 leukemia): > 25 µM
- GI50 (SR leukemia): > 25 µM
- TGI (SR leukemia): > 25 µM
- GI50 (SK-MEL-5 melanoma): > 25 µM
- TGI (SK-MEL-5 melanoma): > 25 µM
- GI50 (T-47D breast): > 25 µM
- TGI (T-47D breast): > 25 µM
- GI50 (HT29 colon): > 25 µM
- TGI (HT29 colon): > 25 µM
- GI50 (ACHN renal): > 25 µM
- TGI (ACHN renal): > 25 µM
- GI50 (NCI/ADR-RES ovarian): > 25 µM
- TGI (NCI/ADR-RES ovarian): > 25 µM
- GI50 (SNB-19 CNS): > 25 µM
- TGI (SNB-19 CNS): > 25 µM
- GI50 (HS 578T breast): > 25 µM
- TGI (HS 578T breast): > 25 µM
